Source: PMC3674958 (Investigational new drugs, 2012)

Columns and labels:
[1] = Plasma pharmacokinetics of irinotecan and its metabolites; details: human, iv
clinical = details: human, in vivo, 400 mg
plasma proteins = experiment: Sorafenib fraction unbound in patient plasma by equilibrium dialysis; format: in vitro ADME; details: human

| Tmax ([1]; 100 mg/m2) | Tmax ([1]; 120 mg/m2) | Cmax (clinical; Cmax) | Tmax (clinical; Tmax) | fraction unbound (plasma proteins) | Structure (SMILES) |
| --- | --- | --- | --- | --- | --- |
| 1.4 h | 1.4 h |  |  |  | CCc1c2c(nc3ccc(OC(=O)N4CCC(N5CCCCC5)CC4)cc13)-c1cc3c(c(=O)n1C2)COC(=O)[C@]3(O)CC [Irinotecan] |
|  |  | 4710 ± 3520 ng/mL | 4.1 h | 0.0027 to 0.0067 | CNC(=O)c1cc(Oc2ccc(NC(=O)Nc3ccc(Cl)c(C(F)(F)F)c3)cc2)ccn1 [Sorafenib, reference compound] |
